Assay results taken from ChEMBL document CHEMBL1201862, “PubChem BioAssay data set” (2004).
Where a name gives a salt, the structure may show the parent alone. Calls of active or inactive are those of the source.

Columns and labels:
[1] = biological target: Glucose-6-phosphate 1-dehydrogenase (Homo sapiens, UniProt P11413); test: human G6PD enzyme inhibitors, dose response, selectivity assay for P. falciparum G6PD inhibitor project, biochemical, fluorescence (AID 504792); type: functional
Coagulation factor XII = biological target: T1, Coagulation factor XII (Homo sapiens, UniProt P00748); type: functional;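 note: activated factor XIIa alpha cleaving a fluorogenic AMC peptide substrate; inhibitor potency from loss of enzyme activity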
T1 sequence (P00748 whole entry): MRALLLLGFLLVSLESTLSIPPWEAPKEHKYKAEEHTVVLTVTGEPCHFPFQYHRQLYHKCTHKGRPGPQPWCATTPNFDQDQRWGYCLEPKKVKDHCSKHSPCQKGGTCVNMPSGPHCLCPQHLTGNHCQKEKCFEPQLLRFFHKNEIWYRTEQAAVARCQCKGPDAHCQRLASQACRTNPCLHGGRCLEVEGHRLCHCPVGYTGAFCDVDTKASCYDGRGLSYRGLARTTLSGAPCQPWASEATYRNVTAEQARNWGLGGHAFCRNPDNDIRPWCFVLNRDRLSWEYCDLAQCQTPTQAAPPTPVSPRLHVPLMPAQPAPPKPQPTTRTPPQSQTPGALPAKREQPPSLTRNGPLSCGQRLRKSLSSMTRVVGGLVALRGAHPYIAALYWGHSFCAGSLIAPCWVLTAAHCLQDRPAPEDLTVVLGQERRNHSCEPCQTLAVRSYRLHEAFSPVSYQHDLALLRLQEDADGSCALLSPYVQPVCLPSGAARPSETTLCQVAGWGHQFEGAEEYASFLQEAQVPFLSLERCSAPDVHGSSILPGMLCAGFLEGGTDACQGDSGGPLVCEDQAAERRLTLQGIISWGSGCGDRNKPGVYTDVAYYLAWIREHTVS

[2] = biological target: T2, Sentrin-specific protease 1 (Homo sapiens, UniProt Q9P0U3); test: potency of human SENP1 inhibitors, dose response, biochemical, kinetic FRET (AID 651697); type: functional; settings: read-out: IC50_Mean
T2 sequence (Q9P0U3 whole entry): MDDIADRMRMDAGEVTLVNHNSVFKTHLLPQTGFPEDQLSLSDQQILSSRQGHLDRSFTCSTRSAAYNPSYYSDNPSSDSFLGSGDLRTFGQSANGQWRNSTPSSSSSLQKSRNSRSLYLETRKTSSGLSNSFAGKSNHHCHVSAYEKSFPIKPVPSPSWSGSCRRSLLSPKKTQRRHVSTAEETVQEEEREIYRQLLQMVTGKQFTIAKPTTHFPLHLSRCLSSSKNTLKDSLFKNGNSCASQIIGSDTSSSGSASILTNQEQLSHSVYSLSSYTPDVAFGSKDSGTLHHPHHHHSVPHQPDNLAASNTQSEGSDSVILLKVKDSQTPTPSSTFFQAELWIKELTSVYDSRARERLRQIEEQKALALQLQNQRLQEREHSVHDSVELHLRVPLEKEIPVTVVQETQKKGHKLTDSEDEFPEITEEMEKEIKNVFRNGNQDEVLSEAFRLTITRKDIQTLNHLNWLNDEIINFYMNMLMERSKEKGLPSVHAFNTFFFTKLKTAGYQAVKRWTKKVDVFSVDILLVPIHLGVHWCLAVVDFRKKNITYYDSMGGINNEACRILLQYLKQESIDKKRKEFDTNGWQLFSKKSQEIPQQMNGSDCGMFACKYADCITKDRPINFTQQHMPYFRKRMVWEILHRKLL

[3] = biological target: T2, Sentrin-specific protease 1; test: Dose response confirmation of small molecule inhibitors of the catalytic domain of the SUMO protease, SENP1 in a FRET assay.; type: functional; settings: read-out: IC50_Mean
[4] = AlphaScreen signal interference compounds, dose response, artefact control for ARNT-TACC3 interaction inhibitor project, biochemical, luminescence, cherry-pick (AID 651705); type: functional;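 note: AlphaScreen bead proximity signal that flags compounds interfering with the detection technology; potency reflects signal decrease which marks the compound as an assay artifact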
[5] = biological target: T3, Latent membrane protein 1 (Human herpesvirus 4 (strain B95-8), UniProt P03230); test: TES1-eGFP NF-kB reporter inhibition versus Tet-On dsRED, dose response, selectivity assay for LMP1 NF-kB inhibitor project, imaging, HEK293T, dual-color eGFP/dsRED, cherry-picks (AID 588398); type: functional, cell-based
T3 sequence (P03230 whole entry): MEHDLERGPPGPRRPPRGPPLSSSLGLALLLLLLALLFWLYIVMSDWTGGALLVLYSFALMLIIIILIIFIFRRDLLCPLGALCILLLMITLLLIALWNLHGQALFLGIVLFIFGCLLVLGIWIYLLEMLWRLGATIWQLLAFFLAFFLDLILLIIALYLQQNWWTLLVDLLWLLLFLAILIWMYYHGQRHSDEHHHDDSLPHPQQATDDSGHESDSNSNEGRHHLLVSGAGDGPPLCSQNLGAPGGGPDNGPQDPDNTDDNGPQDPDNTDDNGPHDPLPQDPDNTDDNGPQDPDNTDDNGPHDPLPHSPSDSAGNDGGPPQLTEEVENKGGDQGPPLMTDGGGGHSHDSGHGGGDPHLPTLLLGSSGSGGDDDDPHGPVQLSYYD

[6] = biological target: T4, Mitochondrial peptide methionine sulfoxide reductase (Bos taurus, UniProt P54149); type: functional;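 note: absorbance read-out, biochemical high-throughput dose-response screen for MsrA inhibitors, confirmatory; recombinant bovine MsrA coupled to E. coli TrxB with NADPH and selenocystamine; potency is for inhibitors of MsrA activity on DMSO substrate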
T4 sequence (P54149 whole entry): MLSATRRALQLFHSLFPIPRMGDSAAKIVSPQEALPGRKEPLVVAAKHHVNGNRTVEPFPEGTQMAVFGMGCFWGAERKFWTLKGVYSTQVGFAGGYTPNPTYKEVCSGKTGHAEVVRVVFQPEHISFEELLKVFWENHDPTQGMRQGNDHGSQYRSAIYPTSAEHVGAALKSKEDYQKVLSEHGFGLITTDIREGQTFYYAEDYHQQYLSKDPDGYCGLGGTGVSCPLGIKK

HeLa = test: HeLa cell cytotoxicity, dose response, cytotoxicity control for MITF activator project, CellTiter-Glo luminescence, cherry-pick samples (AID 540259); type: functional, cell-based; settings: Homo sapiens
[7] = biological target: Adenosylmethionine-8-amino-7-oxononanoate aminotransferase (Mycobacterium tuberculosis, UniProt P9WQ81); test: Mycobacterium tuberculosis BioA enzyme inhibitor Measured in Biochemical System Using Plate Reader - 2163-02_Inhibitor_Dose_CherryPick_Activity.; type: functional, Mycobacterium tuberculosis UT205
Chain of Adenosylmethionine-8-amino-7-oxononanoate aminotransferase (P9WQ81 whole entry): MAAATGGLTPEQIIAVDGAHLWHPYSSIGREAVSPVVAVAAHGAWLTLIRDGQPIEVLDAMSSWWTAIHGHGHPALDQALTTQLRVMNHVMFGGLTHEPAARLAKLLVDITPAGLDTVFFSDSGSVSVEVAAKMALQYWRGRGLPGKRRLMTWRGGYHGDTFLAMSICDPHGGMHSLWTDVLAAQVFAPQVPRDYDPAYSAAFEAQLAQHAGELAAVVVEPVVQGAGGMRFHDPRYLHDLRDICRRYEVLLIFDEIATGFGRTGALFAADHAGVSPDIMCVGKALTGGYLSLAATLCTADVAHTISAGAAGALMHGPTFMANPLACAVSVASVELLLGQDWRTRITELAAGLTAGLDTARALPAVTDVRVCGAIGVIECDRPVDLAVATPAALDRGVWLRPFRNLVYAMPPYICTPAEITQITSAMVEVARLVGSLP

[8] = biological target: T5, Type-1 angiotensin II receptor (Homo sapiens, UniProt P30556); test: AT1 receptor antagonists, dose response, selectivity assay for APJ receptor antagonist project, cell-based, uHTS hits (AID 463214); type: functional;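 note: antagonist potency against angiotensin II stimulated AT1 response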
T5 sequence (P30556 whole entry): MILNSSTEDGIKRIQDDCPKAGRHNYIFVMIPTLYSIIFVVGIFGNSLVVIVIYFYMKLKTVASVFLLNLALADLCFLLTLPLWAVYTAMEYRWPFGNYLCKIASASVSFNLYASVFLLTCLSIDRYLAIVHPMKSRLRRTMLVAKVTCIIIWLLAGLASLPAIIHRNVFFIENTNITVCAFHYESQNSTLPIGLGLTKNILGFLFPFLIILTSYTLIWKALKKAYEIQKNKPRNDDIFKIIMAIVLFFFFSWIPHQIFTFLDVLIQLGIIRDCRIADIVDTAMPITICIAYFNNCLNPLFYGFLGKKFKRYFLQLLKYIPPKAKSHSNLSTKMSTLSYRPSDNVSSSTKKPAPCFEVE

Beta-galactosidase = Beta-galactosidase (Escherichia coli, UniProt Q8VNN2); test: PubChem AID 485352; type: functional
Chain of Beta-galactosidase (Q8VNN2 whole entry): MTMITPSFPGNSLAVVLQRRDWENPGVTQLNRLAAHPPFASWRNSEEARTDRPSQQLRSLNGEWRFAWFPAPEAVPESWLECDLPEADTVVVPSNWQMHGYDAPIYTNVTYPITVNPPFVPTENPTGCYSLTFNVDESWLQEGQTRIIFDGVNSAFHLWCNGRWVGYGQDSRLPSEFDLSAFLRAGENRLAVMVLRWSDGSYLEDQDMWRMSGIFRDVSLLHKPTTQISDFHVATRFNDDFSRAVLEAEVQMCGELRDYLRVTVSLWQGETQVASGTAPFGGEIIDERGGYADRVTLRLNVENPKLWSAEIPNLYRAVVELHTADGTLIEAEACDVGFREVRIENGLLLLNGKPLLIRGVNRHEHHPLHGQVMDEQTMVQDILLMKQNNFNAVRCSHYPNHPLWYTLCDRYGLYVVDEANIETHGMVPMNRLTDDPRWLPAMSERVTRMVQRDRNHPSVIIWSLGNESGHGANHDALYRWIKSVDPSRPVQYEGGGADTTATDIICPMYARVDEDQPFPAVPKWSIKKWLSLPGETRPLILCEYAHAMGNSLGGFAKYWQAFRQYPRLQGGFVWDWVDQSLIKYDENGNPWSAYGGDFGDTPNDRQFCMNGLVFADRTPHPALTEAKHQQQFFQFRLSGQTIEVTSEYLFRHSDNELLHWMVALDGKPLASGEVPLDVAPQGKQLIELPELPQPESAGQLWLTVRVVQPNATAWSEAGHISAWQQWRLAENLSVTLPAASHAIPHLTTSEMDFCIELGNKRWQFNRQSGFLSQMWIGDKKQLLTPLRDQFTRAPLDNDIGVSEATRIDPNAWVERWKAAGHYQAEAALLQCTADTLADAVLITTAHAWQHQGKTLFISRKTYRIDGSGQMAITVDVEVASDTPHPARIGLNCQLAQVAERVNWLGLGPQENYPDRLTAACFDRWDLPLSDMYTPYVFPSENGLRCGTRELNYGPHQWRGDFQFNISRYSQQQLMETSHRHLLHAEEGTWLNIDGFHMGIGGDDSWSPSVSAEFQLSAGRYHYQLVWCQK

[9] = Luminescence Cell-Based Dose Response HTS to Identify Inhibitors of 5'UTR Stem-Loop Driven Prion Protein mRNA Translation in H4 Neuroglioblastoma Cells. [Related pubchem assays: 1827 (Project Summary), 1813 (Primary HTS)]; type: functional
[10] = inhibitors of SNCA 5'UTR-driven reporter translation, confirmation, H4 neuroglioma cells, luminescence (AID 1988); type: functional, cell-based
[11] = nonselective inhibitors of cellular cAMP signaling, dose response, counter-screen for MC4R biased antagonist project, cell-based, TR-FRET cAMP detection (AID 602305); type: functional;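 note: U2OS cells stimulated with forskolin near its EC80 as the cAMP inducer; potency is for inhibition of forskolin-stimulated cAMP signaling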
Melanocortin receptor 4 = Melanocortin receptor 4 (Homo sapiens, UniProt P32245); test: MC4R antagonist potency on cAMP, dose response, cell-based, TR-FRET, biased antagonists (AID 602298); type: functional;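 note: antagonist potency against agonist-stimulated cAMP production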
Chain of Melanocortin receptor 4 (P32245 whole entry): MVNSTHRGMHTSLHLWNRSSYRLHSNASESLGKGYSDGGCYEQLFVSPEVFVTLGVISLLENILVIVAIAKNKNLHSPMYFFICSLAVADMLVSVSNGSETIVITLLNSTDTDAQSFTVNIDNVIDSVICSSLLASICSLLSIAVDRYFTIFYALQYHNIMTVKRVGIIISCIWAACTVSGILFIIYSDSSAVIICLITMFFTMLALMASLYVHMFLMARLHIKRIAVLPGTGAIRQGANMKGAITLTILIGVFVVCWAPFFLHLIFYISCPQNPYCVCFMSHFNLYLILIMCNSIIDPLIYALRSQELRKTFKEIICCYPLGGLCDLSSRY

[12] = inhibitors of firefly luciferase expression or activity, dose response, H4 neuroglioma cells, luminescence (AID 1990); type: functional, cell-based
[13] = biological target: Luciferin 4-monooxygenase (Photinus pyralis, UniProt P08659); test: firefly luciferase enzyme inhibitors, dose response, biochemical, luminescence (AID 1891)
Chain of Luciferin 4-monooxygenase (P08659 whole entry): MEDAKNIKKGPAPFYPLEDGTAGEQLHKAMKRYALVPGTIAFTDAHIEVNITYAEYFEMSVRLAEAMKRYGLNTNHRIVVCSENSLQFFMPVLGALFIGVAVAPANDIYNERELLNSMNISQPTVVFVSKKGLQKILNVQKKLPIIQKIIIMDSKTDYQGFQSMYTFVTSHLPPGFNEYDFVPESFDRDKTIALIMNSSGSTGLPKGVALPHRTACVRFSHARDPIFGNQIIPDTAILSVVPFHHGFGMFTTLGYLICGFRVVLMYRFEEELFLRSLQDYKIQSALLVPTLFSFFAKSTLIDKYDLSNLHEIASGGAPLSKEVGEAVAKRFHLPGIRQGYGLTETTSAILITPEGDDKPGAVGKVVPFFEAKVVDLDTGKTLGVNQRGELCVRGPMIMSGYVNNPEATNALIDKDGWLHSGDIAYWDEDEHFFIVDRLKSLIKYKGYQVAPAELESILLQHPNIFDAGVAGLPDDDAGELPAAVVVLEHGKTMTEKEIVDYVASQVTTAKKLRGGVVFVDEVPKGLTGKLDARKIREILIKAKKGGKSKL

[14] = Luminescence Cell-Based Dose Confirmation HTS to Identify Inhibitors of Platelet Dense Granule Release. [Related pubchem assays: 1663 (Primary HTS), 1678 (Summary of Project)]; type: functional
[15] = biological target: SWI/SNF-related matrix-associated actin-dependent regulator of chromatin subfamily A member 2 (Homo sapiens, UniProt P51531); test: Luminescence-based cell-based high throughput dose response assay to identify activators of the function of SWI/SNF related, matrix associated, actin dependent regulator of chromatin, subfamily a, member 2 (SMARCA2, BRM).; type: functional
Chain of SWI/SNF-related matrix-associated actin-dependent regulator of chromatin subfamily A member 2 (P51531 whole entry): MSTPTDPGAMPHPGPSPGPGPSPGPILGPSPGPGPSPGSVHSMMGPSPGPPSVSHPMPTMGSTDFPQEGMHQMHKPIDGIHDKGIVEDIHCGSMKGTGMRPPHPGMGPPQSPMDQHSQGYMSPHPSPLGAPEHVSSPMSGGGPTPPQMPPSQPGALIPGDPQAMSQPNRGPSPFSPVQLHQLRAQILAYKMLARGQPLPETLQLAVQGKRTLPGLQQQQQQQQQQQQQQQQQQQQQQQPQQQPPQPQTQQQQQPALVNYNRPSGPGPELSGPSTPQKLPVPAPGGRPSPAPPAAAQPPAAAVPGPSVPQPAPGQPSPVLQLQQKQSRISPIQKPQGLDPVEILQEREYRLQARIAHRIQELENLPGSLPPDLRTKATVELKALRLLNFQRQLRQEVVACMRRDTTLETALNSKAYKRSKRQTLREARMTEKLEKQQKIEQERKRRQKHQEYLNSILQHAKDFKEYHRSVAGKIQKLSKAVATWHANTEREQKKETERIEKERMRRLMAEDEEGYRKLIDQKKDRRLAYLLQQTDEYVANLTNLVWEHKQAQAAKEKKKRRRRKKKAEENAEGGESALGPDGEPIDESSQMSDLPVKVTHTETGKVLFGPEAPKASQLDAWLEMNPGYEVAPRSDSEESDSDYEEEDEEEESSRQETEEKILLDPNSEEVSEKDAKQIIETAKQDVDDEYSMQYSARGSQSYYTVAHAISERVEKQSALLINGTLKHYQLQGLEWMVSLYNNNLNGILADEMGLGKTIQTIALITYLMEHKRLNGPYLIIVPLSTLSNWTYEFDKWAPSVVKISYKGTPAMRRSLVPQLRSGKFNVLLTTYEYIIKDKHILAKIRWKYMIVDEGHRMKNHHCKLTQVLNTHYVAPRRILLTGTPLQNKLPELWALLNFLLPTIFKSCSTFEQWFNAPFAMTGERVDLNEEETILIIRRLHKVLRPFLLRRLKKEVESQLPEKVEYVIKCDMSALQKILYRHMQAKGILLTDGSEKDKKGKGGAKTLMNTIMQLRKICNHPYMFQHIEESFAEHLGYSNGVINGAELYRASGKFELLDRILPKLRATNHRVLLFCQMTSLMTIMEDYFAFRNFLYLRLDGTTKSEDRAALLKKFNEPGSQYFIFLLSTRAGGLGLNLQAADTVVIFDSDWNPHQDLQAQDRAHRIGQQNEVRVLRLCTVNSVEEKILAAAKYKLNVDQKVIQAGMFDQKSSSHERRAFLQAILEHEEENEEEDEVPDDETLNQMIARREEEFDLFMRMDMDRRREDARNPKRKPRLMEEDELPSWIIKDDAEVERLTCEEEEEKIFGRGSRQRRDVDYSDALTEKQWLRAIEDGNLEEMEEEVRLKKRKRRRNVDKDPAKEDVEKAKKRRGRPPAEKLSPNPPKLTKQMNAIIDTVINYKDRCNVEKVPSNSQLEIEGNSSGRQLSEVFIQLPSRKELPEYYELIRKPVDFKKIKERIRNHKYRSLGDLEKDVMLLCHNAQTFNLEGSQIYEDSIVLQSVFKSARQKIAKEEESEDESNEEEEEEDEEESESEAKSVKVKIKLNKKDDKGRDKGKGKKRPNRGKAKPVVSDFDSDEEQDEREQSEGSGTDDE

[16] = Counterscreen for activators of the function of SWI/SNF related, matrix associated, actin dependent regulator of chromatin, subfamily a, member 2 (SMARCA2, BRM): Luminescence-based cell-based high throughput dose response assay to identify non-selective compounds using the VP16 reporter assay.; type: functional
Protein Wnt-3a = Protein Wnt-3a (Mus musculus, UniProt P27467); test: Wnt3a-driven reporter signaling inhibition, dose response, selectivity assay for Gli-SUFU antagonist project, Wnt-LIGHT cells, luminescence (AID 651570); type: functional; settings: read-out: IC50_Mean;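 note: Wnt-LIGHT reporter cells stimulated with conditioned medium from Wnt3a-producing cells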
[17] = biological target: Photoreceptor-specific nuclear receptor (Homo sapiens, UniProt Q9Y5X4); type: functional, cell-based;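 note: CHO-S cells with Gal4-NCOR and VP16-NR2E3 two-hybrid luciferase reporter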
Chain of Photoreceptor-specific nuclear receptor (Q9Y5X4 whole entry, the tested form may be a part): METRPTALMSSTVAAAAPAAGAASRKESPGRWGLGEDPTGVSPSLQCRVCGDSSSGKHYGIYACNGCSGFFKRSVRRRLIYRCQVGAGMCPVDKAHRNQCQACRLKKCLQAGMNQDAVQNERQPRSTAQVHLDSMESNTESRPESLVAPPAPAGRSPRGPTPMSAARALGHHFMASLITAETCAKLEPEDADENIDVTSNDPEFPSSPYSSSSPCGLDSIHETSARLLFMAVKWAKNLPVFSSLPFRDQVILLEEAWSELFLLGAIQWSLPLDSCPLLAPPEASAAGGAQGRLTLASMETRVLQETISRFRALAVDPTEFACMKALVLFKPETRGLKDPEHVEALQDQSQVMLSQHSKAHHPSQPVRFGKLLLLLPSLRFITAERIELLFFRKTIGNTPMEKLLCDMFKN

[18] = Luminescence Cell-Based Dose Retest to Confirm Inhibitors of Cancer Stem Cells. [Related pubchem assays (depositor defined):AID2717, AID2721]; type: functional; settings: Homo sapiens
Paired box protein Pax-8 = Paired box protein Pax-8 (Homo sapiens, UniProt Q06710); test: inhibitors of PAX8-driven TPO luciferase reporter, dose response, RMG-I cells, cherry-pick (AID 687027); type: functional, cell-based;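 note: luciferase reporter driven by Pax8 target thyroperoxidase promoter measured by SteadyGlo luminescence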
Chain of Paired box protein Pax-8 (Q06710 whole entry): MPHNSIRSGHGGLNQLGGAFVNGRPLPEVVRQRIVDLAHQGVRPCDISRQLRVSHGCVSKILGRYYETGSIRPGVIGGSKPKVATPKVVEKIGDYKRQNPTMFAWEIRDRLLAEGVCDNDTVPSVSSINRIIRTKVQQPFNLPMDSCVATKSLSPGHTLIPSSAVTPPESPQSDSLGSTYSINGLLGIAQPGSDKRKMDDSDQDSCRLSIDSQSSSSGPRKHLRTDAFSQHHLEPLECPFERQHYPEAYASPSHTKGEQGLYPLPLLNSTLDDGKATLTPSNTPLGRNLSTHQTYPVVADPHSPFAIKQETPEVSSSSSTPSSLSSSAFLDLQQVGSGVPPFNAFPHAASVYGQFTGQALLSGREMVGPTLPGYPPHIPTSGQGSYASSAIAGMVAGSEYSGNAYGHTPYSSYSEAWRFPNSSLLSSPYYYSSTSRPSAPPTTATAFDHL

HEK293 = test: inhibitors of LMP1-driven NF-kB reporter, dose response, cell-based, HEK293, luciferase, cherry-pick (AID 588343); type: functional; settings: Homo sapiens

COc1ccc(C(=O)ON=C2C=C(C)C(=O)C(C)=C2)cc1
IC50 [1]: > 80 µM (inactive)
IC50 (Coagulation factor XII): 0.574 µM (active)

Oc1nncc2c3ccccc3n(Cc3cccc(Cl)c3)c12
IC50 [2]: 4.55 µM (active)
IC50 [3]: 4.44 µM (active)

COc1cccc(C2c3[nH]c4ccccc4c3CCN2Cc2ncc[nH]2)c1 (centres undefined)
AC50 [4]: 123 µM (active)

Cn1cc(CC(=O)NCCCN2CCCC2)c2ccccc21
AC50 [5]: 43.5 µM (active)

Cc1ccc(C2=N/C(=C/N3CCOCC3)C(=O)O2)cc1
IC50 [6]: 142 µM (inactive)

Cc1ccc(NC(=O)Nc2ccc3c(c2)N(C)C(=O)CS3)nc1
AC50 (HeLa): > 350 µM (inactive)

Fc1ccc2nc(N3CCCC3)sc2c1
AC50 (HeLa): 42.8 µM (active)

Nn1c(SCc2nc3ccccc3[nH]2)nnc1-c1cccnc1
AC50 [7]: 5.06 µM (active)

O=C(Nc1ccccc1Cl)c1ccc2nccnc2c1
AC50 (HeLa): 67.6 µM (active)

COc1ccc(-c2cc(-c3ccccc3)nc(NN)n2)cc1OC
IC50 [8]: 11.2 µM (active)
EC50 (Beta-galactosidase): > 40 µM (inactive)

Cc1ccc(C)c(NC(=O)COC(=O)c2cccc3c2C(=O)c2ccccc2C3=O)c1
EC50 [9]: > 60 µM (not active)
EC50 [10]: > 120 µM (not active)
IC50 [11]: > 64.6 µM (inactive)
IC50 (Melanocortin receptor 4): > 64.6 µM (inactive)
EC50 [12]: > 120 µM (not active)

Brc1ccc(N=Nc2ccc3ccccc3n2)cc1
EC50 [13]: 0.299 µM (active)
EC50 [10]: 0.125 µM (active)
IC50 [8]: > 40 µM (not active)
EC50 [12]: 0.107 µM (active)
EC50 [14]: 0.969 µM (active)
EC50 (Beta-galactosidase): > 40 µM (inactive)

O=C(CNc1ccc(Br)cc1)c1ccc(Br)s1
EC50 [15]: > 91.1 µM (inactive)
IC50 [8]: 14.7 µM (active)
EC50 [16]: > 91.1 µM (inactive)
EC50 (Beta-galactosidase): > 40 µM (inactive)

O=C(C[C@@H]1C/C=C\C[C@H](NC(=O)OCC2c3ccccc3-c3ccccc32)C(=O)OC[C@H]2CCCN2C1=O)N[C@H](CO)Cc1ccccc1
IC50 (Protein Wnt-3a): 8.46 µM (active)

CCCCC[C@@H]1C=C(C(=O)O)[C@H](c2ccc(Cl)c(Cl)c2)N1S(=O)(=O)c1ccc(C)cc1
IC50 [17]: 4.88 µM (active)
AC50 [18]: 4.58 µM (active)

COc1ccc(NC(=O)c2ccc(-n3cncn3)c([N+](=O)[O-])c2)cc1OC
AC50 [7]: 2.2 µM (active)

COC(=O)c1c(NC(=O)C2COc3ccccc3O2)sc2c1CCN(C(=O)OC)C2 (centres undefined)
IC50 [11]: > 64.6 µM (inactive)
IC50 (Melanocortin receptor 4): > 64.6 µM (inactive)

COc1ccc(NC(=O)N[C@@H]2CC[C@@H](CCn3cc(-c4ccccn4)nn3)O[C@H]2CO)cc1
AC50 [4]: 82.2 µM (active)

CCN(CC)c1ccc(C(NC(=O)C(C)C)c2ccc3cccnc3c2O)cc1 (centres undefined)
AC50 [5]: 3.72 µM (active)
AC50 (Paired box protein Pax-8): 1.09 µM (active)
AC50 (HEK293): 7.26 µM (active)

C[C@@H]1CN([C@H]2CC[C@](C#N)(c3ccc(F)cc3)CC2)CC[C@]1(C(=O)O)c1ccccc1 [LEVOCABASTINE HYDROCHLORIDE]
AC50 [5]: 197 µM (active)
